Data published in US8324265B2, “Heterocyclic compounds having type I 11β hydroxysteroid dehydrogenase inhibitory activity” (Shionogi & Co., Ltd., priority 2005, dated 2012).

What was measured:
[1] = target: recombinant human 11β-HSD1 (Homo sapiens, UniProt P28845); assay: Enzyme activity assay on human 11β-HSD1 (HTRF); assay type: biochemical; settings: recombinant human 11β-HSD1, 5μM cortisone as substrate, 2 hours at 37° C.; read-out: humanIC50
Procedure: Evaluation of 11β-HSD1 Inhibitors (Enzyme Activity Assay on Human 11β-HSD1)
Enzymatic activity for human 11β-HSD1 was determined in a 10 μl final volume of assay mixture containing 50 mM sodium phosphate buffer (pH 7.6), 1 mg/ml bovine serum albumin, 0.42 mg/ml NADPH, 1.26 mg/ml glucose-6-phosphate, glucose-6-phosphate dehydrogenase, test compound, recombinant human 11β-HSD1, and 5μM cortisone as substrate. The reaction was started with the addition of cortisone. After incubation for 2 hours at 37° C., 5μl of europium cryptate-labelled anti-cortisol antibody and 5μl of XL665-labeled cortisol were added. After further incubation for 2 hours at room temperature, the homogeneous time-resolved fluorescence (HTRF) signal was measured. The cortisol production was quantitated by a standard curve generated with several known concentrations of cortisol in each assay.
(§1) The amount of cortisol production without compounds was served as control, and the percent inhibition by test compound at each concentration was calculated. The IC50 value of the compound for 11β-HSD1 was obtained using the inhibition curve generated by plotting the percent inhibition versus the concentration of test compound.

[2] = target: recombinant mouse 11β-HSD1 (Mus musculus, UniProt P50172); assay: Enzyme activity assay on mouse 11β-HSD1 (HTRF); assay type: biochemical; settings: recombinant mouse 11β-HSD1, 2μM 11-dehydrocorticosterone as substrate, 2 hours at 37° C.; read-out: mouseIC50
recombinant mouse 11β-HSD1, sequence (P50172 whole entry): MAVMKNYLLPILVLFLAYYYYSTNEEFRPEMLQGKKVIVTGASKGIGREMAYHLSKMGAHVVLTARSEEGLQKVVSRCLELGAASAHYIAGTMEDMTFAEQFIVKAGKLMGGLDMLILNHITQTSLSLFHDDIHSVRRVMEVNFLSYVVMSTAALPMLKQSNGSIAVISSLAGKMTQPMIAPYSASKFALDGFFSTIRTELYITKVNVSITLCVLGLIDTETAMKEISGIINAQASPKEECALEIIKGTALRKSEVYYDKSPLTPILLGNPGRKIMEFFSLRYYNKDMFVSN
Procedure: Evaluation of 11β-HSD1 Inhibitors (Enzyme Activity Assay on Mouse 11β-HSD1)
Enzymatic activity for mouse 11β-HSD1 activity was determined in a 10μl final volume of assay mixture containing 50 mM sodium phosphate buffer (pH 7.6), 1 mg/ml bovine serum albumin, 0.42 mg/ml NADPH, 1.26 mg/ml glucose-6-phosphate, glucose-6-phosphate dehydrogenase, test compound, recombinant mouse 11β-HSD1, and 2μM 11-dehydrocorticosterone as substrate. The reaction was started with the addition of 11-dehydrocorticosterone. After incubation for 2 hours at 37° C., 5μl of europium cryptate-labelled anti-cortisol antibody and 5μl of XL665-labeled cortisol were added. After further incubation for 2 hours at room temperature, the HTRF signal was measured. The corticosterone production was quantitated by a standard curve generated with several known concentrations of corticosterone in each assay.
as §1, with “corticosterone” for “cortisol”, “by” for “by test”

recombinant human 11β-HSD1, sequence (P28845 whole entry): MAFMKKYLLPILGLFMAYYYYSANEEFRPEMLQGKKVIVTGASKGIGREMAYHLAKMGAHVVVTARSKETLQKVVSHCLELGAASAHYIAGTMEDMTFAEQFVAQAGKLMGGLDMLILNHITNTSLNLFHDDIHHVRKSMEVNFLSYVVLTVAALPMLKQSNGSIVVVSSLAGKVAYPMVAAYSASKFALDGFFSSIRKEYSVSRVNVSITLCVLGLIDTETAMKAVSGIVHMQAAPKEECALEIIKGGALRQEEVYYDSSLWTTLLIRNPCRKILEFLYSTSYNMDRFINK

Compound | IC50 [1] | IC50 [2] | melting point
CCC(CC)COc1c(C(=O)NC2C3CC4CC(C3)CC2C4)cnn1C (centres unmarked) [Compound A-65] |  |  | 89 to 90 °C
Cn1cc(C(=O)NC2C3CC4CC(C3)CC2C4)c(OCc2ccccc2)n1 (centres unmarked) [Compound A-5] | 710 nM | > 30000 nM | 
Cn1ncc(C(=O)NC2C3CC4CC(C3)CC2C4)c1OCCc1ccsc1 (centres unmarked) [Compound A-64] |  |  | 68 to 69 °C
Cn1ncc(C(=O)NC2C3CC4CC(C3)CC2C4)c1OCC1CCC1 (centres unmarked) [Compound A-63] |  |  | 84 to 85 °C
Cn1ncc(C(=O)NC23CC4CC(CC(C4)C2)C3)c1Oc1ccccc1 [Compound A-3] | 300 nM | 24100 nM | 

Continued by falling IC50 [1], values first:

IC50 [1] | IC50 [2] | melting point | Compound
270 nM | 11000 nM |  | Cn1ncc(C(=O)NC23CC4CC(CC(C4)C2)C3)c1Sc1ccccc1 [Compound A-2]
190 nM | 5900 nM |  | Cn1ncc(C(=O)NC23CC4CC(CC(C4)C2)C3)c1OCc1ccccc1 [Compound A-1]
37 nM | 1600 nM |  | Cn1ncc(C(=O)NC2C3CC4CC(C3)CC2C4)c1OCc1ccccc1 (centres unmarked) [Compound A-4]
18 nM | 710 nM |  | Cn1ncc(C(=O)NC2C3CC4CC(C3)CC2C4)c1OCCc1ccccc1 (centres unmarked) [Compound A-7]
8.3 nM | 940 nM |  | Cn1ncc(C(=O)NC2C3CC4CC(C3)CC2C4)c1OC1CCCCC1 (centres unmarked) [Compound A-6]
